Converted amounts (≈) assume the structure as drawn.

Common to all, as to assay type: functional
One test concerns Escherichia coli. Put plainly: Antibacterial activity against Escherichia coli RCMB 000103 at 25 ug/ml after 24 hrs by agar well diffusion method. The conditions noted are these: RCMB 000103, 24 h, read-out: DIZ.
The test system of another test is Bacillus subtilis. Put plainly: Antibacterial activity against Bacillus subtilis RCMB 010063 at 25 ug/ml after 24 hrs by agar well diffusion method. The conditions noted are these: RCMB 010063, 24 h, read-out: DIZ.
Another test relates to Staphylococcus aureus. As to the kind of experiment: Antibacterial activity against Staphylococcus aureus RCMB 010027 at 25 ug/ml after 24 hrs by agar well diffusion method. The conditions noted are these: RCMB 010027, 24 h, read-out: DIZ.
The subject of the next test is Pseudomonas aeruginosa. Put plainly: Antibacterial activity against Pseudomonas aeruginosa RCMB 010043 at 25 ug/ml after 24 hrs by agar well diffusion method. The conditions noted are these: RCMB 010043, 24 h, read-out: DIZ.
Test [1] concerns Candida albicans. Put plainly: Antifungal activity against Candida albicans RCMB 05035 at 25 ug/ml after 72 hrs by agar well diffusion method. The conditions noted are these: RCMB 05035, 72 h, read-out: DIZ.
Test [2] has as its system Aspergillus ochraceus. Put plainly: Antifungal activity against Aspergillus ochraceus RCMB 02593.
Test [3] relates to Candida albicans. Put plainly: Antifungal activity against Candida albicans RCMB 05035.
Test [4] concerns Aspergillus ochraceus. Put plainly: Antifungal activity against Aspergillus ochraceus RCMB 02593 at 25 ug/ml after 72 hrs by agar well diffusion method. The conditions noted are these: RCMB 02593, 72 h, read-out: DIZ.

As for `CC1(C)S[C@@H]2[C@H](NC(=O)[C@H](N)c3ccccc3)C(=O)N2[C@H]1C(=O)O` [AMPICILLIN], the zone of inhibition at 25 µg/mL with Escherichia coli turned out to be 21.4 mm; in the test on Bacillus subtilis, 34.6 mm; in the test with Staphylococcus aureus, 28.9 mm; in the test on Pseudomonas aeruginosa it was 17.3 mm.
For `OC(Cn1cncn1)(Cn1cncn1)c1ccc(F)cc1F` [FLUCONAZOLE], the zone of inhibition at 25 µg/mL in the test with Candida albicans [1] came out at 26.4 mm; with Aspergillus ochraceus [4], 21.9 mm. Moreover, the results for the MIC in the test with Aspergillus ochraceus [2] and in the test on Candida albicans [3] were 1.95 µg/mL (≈ 6.37 µM) and 0.24 µg/mL (≈ 0.784 µM), respectively.

Source of the values: ChEMBL document CHEMBL3045595, “Synthesis and characterization of new types of 2-(6-methoxy-2-naphthyl)propionamide derivatives as potential antibacterial and antifungal agents” (2013).
